From patent US20240083908A1, “TETRAHYDROTHIENOPYRIMIDINESULFONAMIDE COMPOUNDS” (priority 2020, published 2024)

molecular target: human recombinant PARG (Homo sapiens (Human), UniProt Q86W56); test: PARG Activity Assay; assay type: biochemical; settings: recombinant human PARG 0.0185 nM, 1 hour pre-incubation, poly (ADP-ribose) substrate-coated plate, Abs 450
Method: In order to evaluate the PARG inhibitory activity of the present compound, the inhibitory activity of each test compound against human recombinant PARG was measured. The specific procedure is described below.
Test compound was dissolved in dimethyl sulfoxide and prepared a 10 mM stock solution.
PARG Activity Assay was performed in Streptavidin-coated 96-well plates. […] The substrate solution was added to the 96-well plate at the volume of 200 micro liter per well and incubated for 3 hours at room temperature. After the incubation, the substrate solution was discarded and assay plate was washed 4 times with 220 micro liter of PBS containing 0.1% Tween20 (PBST). […] The diluted enzyme solution was pre-incubated with compounds for 1 hour at room temperature in a 96-well plate and transferred 100 micro liter per well to the poly (ADP-ribose) substrate-coated assay plate. The plate was incubated for 1 hour at 25° C. and then washed 4 times with 220 micro liters of PBST. For the detection of non-digested poly (ADP-ribose) polymer on the plate, mouse anti-poly (ADP-ribose) antibody diluted with 0.2% BSA containing PBS was added 100 micro liters per well and incubated 1 hour at room temperature. Plate was washed 4 times with TBST and 100 micro liter of HRP-labeled anti-mouse Ig antibody was added to the wells. Plate was incubated for 30 minutes at room temperature and then washed 4 times with PBST. For the detection 100 micro liters of TMB substrate solution was added to the wells. After sufficient color development, reaction was stopped by addition of 50 micro liter of 0.2 M […]. The 450 nm absorbance (Abs 450) of each well was read with a micro plate reader. The assay was performed by duplicated and average of 2 independent assays were used for the determination of PARG inhibitor y activity.
Wells treated with dimethyl sulfoxide instead of test compound solution were designated as a Negative Control of assay
Wells treated with 0.2% BSA containing PBS instead of recombinant human PARG protein and with dimethyl sulfoxide instead of test compound solution were designated as a Positive Control of assay.
The PARG Inhibitory Activity (%) was determined by the following formulation.
PARG Inhibitory Activity (%)=[(AbsX−AbsA)/(AbsB−AbsA)]×100
(wherein, • AbsA is absorbance (Abs 450) of Negative Control wells • AbsB is absorbance (Abs 450) of Positive Control wells • AbsX is absorbance (Abs 450) of wells treated with test compound.)
In Table, Ex indicates an Example number shown below.

Sequence of human recombinant PARG (Q86W56 whole entry): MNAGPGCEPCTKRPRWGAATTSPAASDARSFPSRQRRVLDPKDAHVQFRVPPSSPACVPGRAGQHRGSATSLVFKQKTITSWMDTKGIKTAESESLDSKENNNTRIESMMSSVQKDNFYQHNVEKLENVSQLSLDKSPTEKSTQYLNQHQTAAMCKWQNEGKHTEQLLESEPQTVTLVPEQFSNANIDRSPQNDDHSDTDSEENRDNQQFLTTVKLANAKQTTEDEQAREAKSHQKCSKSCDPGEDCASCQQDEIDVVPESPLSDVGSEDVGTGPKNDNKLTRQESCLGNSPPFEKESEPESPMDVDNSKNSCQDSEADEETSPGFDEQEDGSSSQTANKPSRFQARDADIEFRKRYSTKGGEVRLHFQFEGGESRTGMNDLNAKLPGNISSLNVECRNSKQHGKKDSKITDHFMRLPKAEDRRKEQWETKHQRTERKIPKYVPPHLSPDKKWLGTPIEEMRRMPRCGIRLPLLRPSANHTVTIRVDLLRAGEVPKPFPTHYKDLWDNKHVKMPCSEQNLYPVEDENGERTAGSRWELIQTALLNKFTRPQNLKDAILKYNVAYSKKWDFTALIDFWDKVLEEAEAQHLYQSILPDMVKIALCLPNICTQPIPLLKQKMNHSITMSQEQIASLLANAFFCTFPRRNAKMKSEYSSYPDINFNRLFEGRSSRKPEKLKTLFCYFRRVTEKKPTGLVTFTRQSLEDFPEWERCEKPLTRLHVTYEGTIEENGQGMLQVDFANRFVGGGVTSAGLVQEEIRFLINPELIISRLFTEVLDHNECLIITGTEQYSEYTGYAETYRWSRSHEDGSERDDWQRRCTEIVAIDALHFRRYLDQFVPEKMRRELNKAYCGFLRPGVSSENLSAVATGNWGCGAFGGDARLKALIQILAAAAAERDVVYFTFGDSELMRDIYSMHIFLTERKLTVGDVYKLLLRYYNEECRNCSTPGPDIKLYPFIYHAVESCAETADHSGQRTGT

Row | Structure (SMILES) | IC50 [µM]
1 | Cc1ncc(Cn2c(=O)c3cc(S(=O)(=O)NC4(C)CC4)sc3n(Cc3ccc4[nH]ncc4c3)c2=O)s1 [Ex 4] | 0.011
2 | Cc1ncc(Cn2c(=O)c3cc(S(=O)(=O)NC4(C)CC4)sc3n(CC3CCOCC3)c2=O)s1 [Ex 14] | 0.32
3 | Cc1cc(Cn2c(=O)n(Cc3cnn(C)c3)c(=O)c3cc(S(=O)(=O)NC4(C)CC4)sc32)cc2c1COC2 [Ex 114] | 0.034
4 | COCCNc1ncc(Cn2c(=O)n(Cc3cnn(C)c3)c(=O)c3cc(S(=O)(=O)NC4(C)CC4)sc32)cn1 [Ex 79] | 0.07
5 | COCc1cc2cc(Cn3c(=O)n(Cc4cnn(C)c4)c(=O)c4cc(S(=O)(=O)NC5(C)CC5)sc43)ccc2[nH]1 [Ex 89] | 0.013
6 | Cn1cc(Cn2c(=O)c3cc(S(=O)(=O)NC4(C)CC4)sc3n(Cc3ccc4c(n3)COC4)c2=O)cn1 [Ex 109] | 0.045
7 | COCCN(C)c1ccc(Cn2c(=O)n(Cc3cnn(C)c3)c(=O)c3cc(S(=O)(=O)NC4(C)CC4)sc32)cc1F [Ex 75] | 0.13
8 | Cn1cc(Cn2c(=O)c3cc(S(=O)(=O)NC4(C)CC4)sc3n(Cc3cc4c(cn3)COC4)c2=O)cn1 [Ex 41] | 0.097
9 | Cc1ncc(Cn2c(=O)c3cc(S(=O)(=O)NC4CC4)sc3n(CC3CC3)c2=O)s1 [Ex 24] | 2.22
10 | Cn1cc(Cn2c(=O)c3cc(S(=O)(=O)NC4(C)CC4)sc3n(Cc3ccc(F)c(OCCO)c3)c2=O)cn1 [Ex 122] | 0.017
11 | Cn1cc(Cn2c(=O)c3cc(S(=O)(=O)NC4(C)CC4)sc3n(Cc3ccc(C4CC4)cc3)c2=O)cn1 [Ex 49] | 0.095
12 | Cn1cc(Cn2c(=O)c3cc(S(=O)(=O)NC4(C)CC4)sc3n(Cc3cc4n(n3)CCOC4)c2=O)cn1 [Ex 33] | 0.035
13 | COCCC(=O)N1CCC(n2c(=O)n(Cc3cnn(C)c3)c(=O)c3cc(S(=O)(=O)NC4(C)CC4)sc32)CC1 [Ex 94] | 0.27
14 | CNc1ncc(Cn2c(=O)n(Cc3cnn(C)c3)c(=O)c3cc(S(=O)(=O)NC4(C)CC4)sc32)cn1 [Ex 54] | 0.049
15 | CNS(=O)(=O)c1cc2c(=O)n(Cc3cnc(C)s3)c(=O)n(CC3CC3)c2s1 [Ex 23] | 97
16 | Cn1cc(Cn2c(=O)c3cc(S(=O)(=O)NC4(C)CC4)sc3n(Cc3cnc4[nH]ccc4c3)c2=O)cn1 [Ex 37] | 0.009
17 | Cc1ncc(Cn2c(=O)c3cc(S(=O)(=O)NC4(C)CC4)sc3n(Cc3ccc4c(c3)OCC4)c2=O)s1 [Ex 13] | 0.041
18 | COc1ccc(Cn2c(=O)n(Cc3cnn(C)c3)c(=O)c3cc(S(=O)(=O)NC4(C)CC4)sc32)cn1 [Ex 44] | 0.048
19 | Cc1ncc(Cn2c(=O)c3cc(S(=O)(=O)NC4(C)CC4)sc3n(CC3CCOC3)c2=O)s1 (stereo not shown) [Ex 16] | 0.97
20 | Cn1cc(Cn2c(=O)c3cc(S(=O)(=O)NC4(C)CC4)sc3n(Cc3ccc(N4CC[C@H](O)C4)nc3)c2=O)cn1 [Ex 83] | 0.11
21 | Cn1cc(Cn2c(=O)c3cc(S(=O)(=O)NC4(C)CC4)sc3n(Cc3cncc(CO)c3)c2=O)cn1 [Ex 117] | 0.041

Row | Structure (SMILES) | IC50 [µM]
22 | CC(c1ccc2c(c1)COC2)n1c(=O)n(Cc2cnn(C)c2)c(=O)c2cc(S(=O)(=O)NC3(C)CC3)sc21 (stereo not shown) [Ex 112] | 0.14
23 | CN1Cc2ccc(Cn3c(=O)n(Cc4cnn(C)c4)c(=O)c4cc(S(=O)(=O)NC5(C)CC5)sc43)cc2C1=O [Ex 62] | 0.029
24 | Cc1ncc(Cn2c(=O)c3cc(S(=O)(=O)NC4(C)CC4)sc3n(CCOC3CNC3)c2=O)s1 [Ex 7] | 0.21
25 | Cn1cc(Cn2c(=O)c3cc(S(=O)(=O)NC4(C)CC4)sc3n(Cc3ccc4[nH]ncc4c3)c2=O)cn1 [Ex 38] | 0.0041
26 | Cc1ncc(Cn2c(=O)c3cc(S(=O)(=O)NC4(C)CC4)sc3n(CCCN)c2=O)s1 [Ex 9] | 1.07
27 | Cc1ncc(Cn2c(=O)c3cc(S(=O)(=O)NC(C)C)sc3n(CC3CC3)c2=O)s1 [Ex 22] | 93.1
28 | Cn1cc(Cn2c(=O)c3cc(S(=O)(=O)NC4(C)CC4)sc3n(Cc3ccc4c(c3)C(=O)NC4)c2=O)cn1 [Ex 61] | 0.011
29 | Cc1ncc(Cn2c(=O)c3cc(S(=O)(=O)NC4(C)CC4)sc3n(Cc3ccc4cc[nH]c4c3)c2=O)s1 [Ex 11] | 0.16
30 | Cn1cc(Cn2c(=O)c3cc(S(=O)(=O)NC4(C)CC4)sc3n(Cc3ccc4c(c3)CCO4)c2=O)cn1 [Ex 59] | 0.022
31 | Cn1cc(Cn2c(=O)c3cc(S(=O)(=O)NC4(C)CC4)sc3n(Cc3cnc(NCCO)nc3)c2=O)cn1 [Ex 80] | 0.42
32 | Cn1cc(Cn2c(=O)c3cc(S(=O)(=O)NC4(C)CC4)sc3n(Cc3cncnc3)c2=O)cn1 [Ex 34] | 0.3
33 | Cc1c(Cn2c(=O)n(Cc3cnn(C)c3)c(=O)c3cc(S(=O)(=O)NC4(C)CC4)sc32)ccc2c1COC2 [Ex 115] | 0.068
34 | Cn1cc(Cn2c(=O)c3cc(S(=O)(=O)NC4(C)CC4)sc3n(Cc3cnc4c(c3)OCCO4)c2=O)cn1 [Ex 65] | 0.068
35 | Cc1nc(C)c(Cn2c(=O)n(Cc3cnn(C)c3)c(=O)c3cc(S(=O)(=O)NC4(C#N)CC4)sc32)s1 [Ex 101] | 0.064
36 | Cc1ncc(Cn2c(=O)c3cc(S(=O)(=O)NC4(C)CC4)sc3n(Cc3nc4c(o3)CCCC4)c2=O)s1 [Ex 20] | 0.11
37 | Cc1ncc(Cn2c(=O)c3cc(S(=O)(=O)NC4(C)CC4)sc3n(CC3CCCOC3)c2=O)s1 (stereo not shown) [Ex 17] | 0.47
38 | CCNS(=O)(=O)c1cc2c(=O)n(Cc3cnc(C)s3)c(=O)n(CC3CC3)c2s1 [Ex 21] | 75.5
39 | Cn1cc(Cn2c(=O)c3cc(S(=O)(=O)NC4(C#N)CC4)sc3n(Cc3ccc4oc(CO)cc4c3)c2=O)cn1 [Ex 102] | 0.075
40 | COc1cncc(Cn2c(=O)n(Cc3cnn(C)c3)c(=O)c3cc(S(=O)(=O)NC4(C)CC4)sc32)c1 [Ex 42] | 0.04
41 | Cn1cc(Cn2c(=O)c3cc(S(=O)(=O)NC4(C)CC4)sc3n(Cc3ccc(N4CCOCC4)nc3)c2=O)cn1 [Ex 81] | 0.2
42 | Cc1c[nH]c(Cn2c(=O)n(Cc3cnn(C)c3)c(=O)c3cc(S(=O)(=O)NC4(C)CC4)sc32)c(C)c1=O [Ex 134] | 6.04

Row | Structure (SMILES) | IC50 [µM]
43 | CN(C)c1ccc(Cn2c(=O)n(Cc3cnn(C)c3)c(=O)c3cc(S(=O)(=O)NC4(C)CC4)sc32)cc1F [Ex 71] | 0.12
44 | Cn1cc(Cn2c(=O)c3cc(S(=O)(=O)NC4(C)CC4)sc3n(Cc3ccc(F)c(C#N)c3)c2=O)cn1 [Ex 70] | 0.06
45 | CNCCCC(=O)N1CCC(n2c(=O)n(Cc3cnn(C)c3)c(=O)c3cc(S(=O)(=O)NC4(C)CC4)sc32)CC1 [Ex 96] | 0.13
46 | Cn1cc(Cn2c(=O)c3cc(S(=O)(=O)NC4(C)CC4)sc3n(Cc3cnn(CC(F)F)c3)c2=O)cn1 [Ex 56] | 0.036
47 | COC(=O)c1cc(Cn2c(=O)n(Cc3cnn(C)c3)c(=O)c3cc(S(=O)(=O)NC4(C)CC4)sc32)ccc1F [Ex 126] | 0.045
48 | COc1c(F)cc(Cn2c(=O)n(Cc3cnn(C)c3)c(=O)c3cc(S(=O)(=O)NC4(C)CC4)sc32)cc1F [Ex 123] | 0.029
49 | Cn1cc(Cn2c(=O)c3cc(S(=O)(=O)NC4(C)CC4)sc3n(Cc3ccc(Oc4ccc(F)cc4)nc3)c2=O)cn1 [Ex 128] | 0.13
50 | Cc1ncc(Cn2c(=O)c3cc(S(=O)(=O)NC4(C)CC4)sc3n(Cc3cc4n(n3)CCOC4)c2=O)s1 [Ex 19] | 0.13
51 | COc1c(C)cnc(Cn2c(=O)n(Cc3cnn(C)c3)c(=O)c3cc(S(=O)(=O)NC4(C)CC4)sc32)c1C [Ex 133] | 1.18
52 | CC(=O)N1CCC(Cn2c(=O)n(Cc3cnn(C)c3)c(=O)c3cc(S(=O)(=O)NC4(C)CC4)sc32)CC1 [Ex 86] | 0.16
53 | Cc1cc(Cn2c(=O)n(Cc3cnn(C)c3)c(=O)c3cc(S(=O)(=O)NC4(C)CC4)sc32)[nH]n1 [Ex 31] | 0.029
54 | Cn1cc(Cn2c(=O)c3cc(S(=O)(=O)NC4(C)CC4)sc3n(Cc3ccc(F)c(C(=O)N4CCN(C(=O)C5CC5)CC4)c3)c2=O)cn1 [Ex 127] | 0.32
55 | Cn1cc(Cn2c(=O)c3cc(S(=O)(=O)NC4(C#N)CC4)sc3n(Cc3ccc(F)cc3)c2=O)cn1 [Ex 103] | 0.11
56 | CCN(C)c1ccc(Cn2c(=O)n(Cc3cnn(C)c3)c(=O)c3cc(S(=O)(=O)NC4(C)CC4)sc32)cc1F [Ex 72] | 0.19
57 | Cc1ncc(Cn2c(=O)c3cc(S(=O)(=O)NC4(C)CC4)sc3n(Cc3cnc4[nH]ccc4c3)c2=O)s1 [Ex 10] | 0.016
58 | Cn1cc(Cn2c(=O)c3cc(S(=O)(=O)NC4(C)CC4)sc3n(Cc3ccc(Cl)c(F)c3)c2=O)cn1 [Ex 47] | 0.13
59 | Cn1cc(Cn2c(=O)c3cc(S(=O)(=O)NC4(C)CC4)sc3n(Cc3ccc(N4CC(O)C4)nc3)c2=O)cn1 [Ex 90] | 0.017
60 | Cn1cc(Cn2c(=O)c3cc(S(=O)(=O)NC4(C)CC4)sc3n(Cc3cnc(C#N)s3)c2=O)cn1 [Ex 35] | 0.035
61 | Cn1cc(Cn2c(=O)c3cc(S(=O)(=O)NC4(C)CC4)sc3n(Cc3ccc(F)cc3)c2=O)cn1 [Ex 46] | 0.0092
